The first assay concerns the target T1, Human Polymorphonuclear Leukocyte Elastase (Homo sapiens, UniProt P08246).
T1 sequence (P08246 30-267): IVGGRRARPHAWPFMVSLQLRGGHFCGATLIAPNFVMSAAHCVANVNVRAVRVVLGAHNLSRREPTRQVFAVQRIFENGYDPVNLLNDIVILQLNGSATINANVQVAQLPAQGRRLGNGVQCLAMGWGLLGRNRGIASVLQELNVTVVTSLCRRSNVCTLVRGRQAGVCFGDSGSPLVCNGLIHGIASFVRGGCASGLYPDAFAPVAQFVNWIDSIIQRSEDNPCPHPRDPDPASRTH
Kind of assay: biochemical.
Details: not given
On to `COC(=O)C1=C(COC(C)=O)CSC2C(OC(=O)Cc3ccccc3)C(=O)N12` (centres unmarked) [R1=OCOCH2 .phi., B=OCH3], for which the IC50 was 9.87 µM.
In the case of `CC(=O)OCC1=C(C(=O)OC(C)(C)C)N2C(=O)C(OC(=O)Cc3ccccc3)C2SC1` (centres unmarked) [R1=OCOCH2 .phi., B=OtBu], the IC50 is 6.7 µM.

Staying with this assay, now noted: 50% inhibition of enzyme activity 2 minutes after zero time; crude PMN extract, 0.2 mM Boc-AAPAN, pH 7.5, 410 mμ; read-out: ED50 (the source's name) (converted).
On to `CO[C@H]1C(=O)N2C(C(=O)OC(C)(C)C)=C(COC(C)=O)CS[C@H]12` [R1=OCH3, B=OtBu, t-Butyl 3-acetyloxymethyl-7α-methoxy-8-oxo-5-thia-1-azabicyclo(4.2.0)oct-2-ene-2-carboxylate], for which the IC50 was 10.2 µM.
For `COC(=O)C1=C(COC(C)=O)CSC2C(OC)C(=O)N12` (centres unmarked) [R1=OCH3, B=OCH3], the IC50 was 8.3 µM.
With `COC(=O)C1=C(COC(C)=O)CSC2C(OC(=O)c3ccccc3)C(=O)N12` (centres unmarked) [R1=OCO.phi., B=OCH3], the IC50 was 12.8 µM.
Same read-out and setting: the same measure for `CCOC(=O)COC(=O)C1=C(COC(C)=O)CSC2C(OC)C(=O)N12` (stereo not drawn) [R1=OCH3, B=OCH2 COOC2 H5, Ethoxycarbonylmethyl 3-acetyloxymethyl-7α-methoxy-8-oxo-5-thia-1-azabicyclo[4.2.0]oct-2-ene-2-carboxylate]: 1.07 µM; for `COC(=O)c1ccc(COC(=O)C2=C(COC(C)=O)CSC3C(OC)C(=O)N23)cc1` (centres unmarked) [R1=OCH3, B=OCH2 .phi.(p-COOCH3)]: 0.689 µM.
On to `CC(=O)OCC1=C(C(=O)OCc2ccccc2)N2C(=O)C(OC=O)C2SC1` (centres unmarked) [R1=OCHO, B=OCH2 .phi.], for which the IC50 was 5.11 µM.
Take `COC(=O)C1=C(COC(C)=O)CSC2C(OC=O)C(=O)N12` (centres unmarked) [R1=OCHO, B=OCH3]: the IC50 is 9.51 µM.
Turning to `COC1C(=O)N2C(C(=O)OCC=C(C)C)=C(COC(C)=O)CSC12` (centres unmarked) [R1=OCH3, B=OCH2 CHC(CH3)2], the IC50 was 2.81 µM.
On to `COC(=O)CCCOC(=O)C1=C(COC(C)=O)CSC2C(OC)C(=O)N12` (centres unmarked) [R1=OCH3, B=O(CH2)3 COOCH3], for which the IC50 was 1.29 µM.
